According to the supplement of paper PMC7600603:

Key:
[1] = test system: DLD1 NRF2-GOF; conditions: 72 h; CellTiter-Glo viability
How it was run: (§1)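 Cells grown in DMEM with 10% FBS were isogenic DLD1 colorectal cancer lines, NRF2 wild-type or CRISPR gain-of-function. In 384-well plates they received library compounds at 5 concentrations over a 10,000-fold range for 72 h before CellTiter-Glo readout on a Pherastar FS reader, normalised to vehicle wells and 100-μM positive-control wells. Dose-response fits used a four-parameter logistic model, from which EC50 and drug sensitivity score, a normalised area under the curve, were obtained.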

[2] = test system: DLD1 NRF2-GOF; assay: TC50 cytotoxicity; higher = less toxic; conditions: 72 h; CellTox Green cytotoxicity
How it was run: (§2)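 TC50 and drug sensitivity score, a normalised area under the curve, were derived by logistic dose-response fits of cytotoxicity. The cells were an isogenic DLD1 colorectal cancer pair, NRF2 wild-type or CRISPR-edited, kept in DMEM with 10% FBS. Compounds were tested in 384-well plates at 5 concentrations across a 10,000-fold range for 72 h. Readings with CellTox Green on a Pherastar FS reader were normalised to vehicle wells and 100-μM positive-control wells.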

[3] = test system: DLD1 NRF2-WT; assay: TC50 cytotoxicity; higher = less toxic; conditions: 72 h; CellTox Green cytotoxicity
How it was run: as §2

[4] = test system: DLD1 NRF2-GOF; assay: drug sensitivity score (DSS) cytotoxicity (DSS score); higher = more toxic; extreme values may be limits of the assay; conditions: 72 h; CellTox Green cytotoxicity
How it was run: as §2

[5] = test system: DLD1 NRF2-WT; assay: as above; conditions: 72 h; CellTox Green cytotoxicity
How it was run: as §2

[6] = test system: DLD1 NRF2-GOF; assay: drug sensitivity score (DSS) viability (DSS score); higher = more sensitive; extreme values may be limits of the assay; conditions: 72 h; CellTiter-Glo viability
How it was run: as §1

[7] = test system: DLD1 NRF2-WT; assay: as above; conditions: 72 h; CellTiter-Glo viability
How it was run: as §1

[8] = test system: DLD1 NRF2-WT; conditions: 72 h; CellTiter-Glo viability
How it was run: as §1

Compound	EC50 viability [1] [µM]	TC50 cytotoxicity [2] [µM]	TC50 cytotoxicity [3] [µM]	drug sensitivity score [4]	drug sensitivity score [5]	drug sensitivity score [6]	drug sensitivity score [7]	EC50 viability [8] [µM]
Cc1c(-c2c(-c3ccc(F)o3)sc3ncnc(O[C@H](Cc4ccccc4OCc4ccnn4CC(F)(F)F)C(=O)O)c23)ccc(OCCN2CCN(C)CC2)c1Cl	> 1	> 1	> 1	0	0	0	3.6	–
Cc1ccc(C(=O)N(CCCN)[C@@H](c2oc3cc(Cl)ccc3c(=O)c2Cc2ccccc2)C(C)C)cc1	0.0031	> 0.1	–	1.5	2.8	13.5	12.7	0.0028
Cc1nc(Nc2n[nH]c3c2CN(C(=O)N[C@H](CN(C)C)c2ccccc2)C3(C)C)c2sccc2n1	0.0215	> 10	–	1.8	2.1	27.5	28.2	0.021
NCC(=O)Nc1ccc(-n2nc(C(F)(F)F)cc2-c2ccc3c(ccc4ccccc43)c2)cc1	> 25	> 25	> 25	0	0	0	0.8	–
O=C(NOC[C@H](O)CO)c1ccc(F)c(F)c1Nc1ccc(I)cc1F	> 1	> 1	> 1	0	0	0.1	2	–
CC/C(=C(\c1ccc(O)cc1)c1ccc(OCCN(C)C)cc1)c1ccccc1 [4-hydroxytamoxifen]	0.0088	> 10	> 10	0	0	10.6	5	–
COc1ccc(S(=O)(=O)Nc2cccnc2Nc2ccc(O)cc2)cc1 [ABT-751]	0.301	1.07	–	3.6	2.1	14.4	15.3	0.269
CC1CCC(n2c3cnccc3c3cnc(Nc4ccc5c(n4)CCN(C(=O)CO)C5)nc32)CC1 (stereo not given) [AMG-925]	> 1	–	–	–	–	0.5	3.2	0.0997
Cc1[nH]nc(C(F)(F)F)c1Cc1sc2c(c1C(=O)N1C[C@](C)(O)CO1)c(=O)n(C)c(=O)n2C(C)C [AZD3965]	0.0926	–	–	–	–	3.5	2.3	> 1
Cn1ncc(Cl)c1-c1cc(C(=O)N[C@H](CN)Cc2cccc(F)c2)sc1Cl [Afuresertib]	> 1	> 1	> 1	0	0	0.6	1	–
Cc1nc(NC(=O)N2CCC[C@H]2C(N)=O)sc1-c1ccnc(C(C)(C)C(F)(F)F)c1 [Alpelisib]	> 2.5	> 2.5	> 2.5	0	0	0.3	2.4	–
N.N.[Cl][Pt][Cl] [Cisplatin]	30.6	–	–	1.2	1.4	4.8	5.2	27.9
CCN(CC)CCOc1ccc(/C(=C(/Cl)c2ccccc2)c2ccccc2)cc1 [Clomifene]	1.84	–	–	–	–	7.8	5.4	3.08
COc1cccc2c1C(=O)c1c(O)c3c(c(O)c1C2=O)C[C@@](O)(C(C)=O)C[C@@H]3O[C@H]1C[C@H](N)[C@H](O)[C@H](C)O1 [Daunorubicin]	0.165	–	–	–	–	7.2	8.3	0.156
CC(=O)O[C@@]12CO[C@@H]1C[C@H](O)[C@@]1(C)C(=O)[C@H](O)C3=C(C)[C@@H](OC(=O)[C@H](O)[C@@H](NC(=O)OC(C)(C)C)c4ccccc4)C[C@@](O)([C@@H](OC(=O)c4ccccc4)[C@H]21)C3(C)C [Docetaxel]	0.0021	–	–	6.6	6.8	26.6	25.2	0.0034
CN1CCN(c2ccc3nc(-c4c(N)c5c(F)cccc5[nH]c4=O)[nH]c3c2)CC1 [Dovitinib]	> 10	–	–	–	–	0	1.6	> 10
CC(C)C(=O)Nc1ccc([N+](=O)[O-])c(C(F)(F)F)c1 [Flutamide]	0.796	> 10	> 10	0	0	4.6	0.9	–

Compound	EC50 viability [1] [µM]	TC50 cytotoxicity [2] [µM]	TC50 cytotoxicity [3] [µM]	drug sensitivity score [4]	drug sensitivity score [5]	drug sensitivity score [6]	drug sensitivity score [7]	EC50 viability [8] [µM]
CC(C)C[C@H](NC(=O)[C@@H](COC(C)(C)C)NC(=O)[C@H](Cc1ccc(O)cc1)NC(=O)[C@H](CO)NC(=O)[C@H](Cc1c[nH]c2ccccc12)NC(=O)[C@H](Cc1cnc[nH]1)NC(=O)[C@@H]1CCC(=O)N1)C(=O)N[C@@H](CCCNC(=N)N)C(=O)N1CCC[C@H]1C(=O)NNC(N)=O [Goserelin]	> 10	> 10	> 10	0	0	0	4.5	–
O=S(=O)(c1cccc2c(O)nccc12)N1CCCNCC1 [Hydroxyfasudil]	2.83	> 19	> 19	0	0	3.9	2.4	–
CS(=O)(=O)CCNCc1ccc(-c2ccc3ncnc(Nc4ccc(OCc5cccc(F)c5)c(Cl)c4)c3c2)o1 [Lapatinib]	0.0283	> 1	> 1	0	0	4.4	2.8	–
CN1C(=O)N[C@H](Cc2c[nH]c3c(Cl)cccc23)C1=O [Necrostatin 2]	> 10	–	–	–	–	0	0	> 10
Cc1ccc(C(=O)Nc2ccc(CN3CCN(C)CC3)c(C(F)(F)F)c2)cc1C#Cc1cnc2cccnn12 [Ponatinib]	0.114	–	–	–	–	6	4	0.226
Nc1cc(F)ccc1NC(=O)/C=C/c1cnn(C/C=C/c2ccccc2)c1 [RGFP966]	1.07	> 10	> 10	0	0	3.7	3.9	–
CO[C@H]1C[C@@H]2CC[C@@H](C)[C@@](O)(O2)C(=O)C(=O)N2CCCC[C@H]2C(=O)O[C@H]([C@H](C)C[C@@H]2CC[C@@H](OP(C)(C)=O)[C@H](OC)C2)CC(=O)[C@H](C)/C=C(\C)[C@@H](O)[C@@H](OC)C(=O)[C@H](C)C[C@H](C)/C=C/C=C/C=C/1C [Ridaforolimus]	> 0.1	–	–	–	–	0.8	3.5	–
Cn1cnc2c(F)c(Nc3ccc(Br)cc3Cl)c(C(=O)NOCCO)cc21 [Selumetinib]	> 10	> 10	> 10	0	0	0	2	–
CCC(C)(C)C(=O)O[C@H]1C[C@@H](C)C=C2C=C[C@H](C)[C@H](CC[C@@H]3C[C@@H](O)CC(=O)O3)[C@H]21 [Simvastatin]	0.571	–	–	–	–	3.8	0	–
CNC(=O)c1cc(Oc2ccc(NC(=O)Nc3ccc(Cl)c(C(F)(F)F)c3)cc2)ccn1 [Sorafenib]	0.0871	> 1	> 1	0	0	3.3	1.2	–
CC(=O)Nc1ccc(C(=O)Nc2ccccc2N)cc1 [Tacedinaline]	0.0582	> 1	> 1	0	0	4	1.9	–
Cn1ncnc1[C@H]1c2n[nH]c(=O)c3cc(F)cc(c23)N[C@@H]1c1ccc(F)cc1 [Talazoparib]	> 1	> 1	> 1	0	0	2.4	5.6	–
CO[C@H]1C[C@@H]2CC[C@@H](C)[C@@](O)(O2)C(=O)C(=O)N2CCCC[C@H]2C(=O)O[C@H]([C@H](C)C[C@@H]2CC[C@@H](OC(=O)C(C)(CO)CO)[C@H](OC)C2)CC(=O)[C@H](C)/C=C(\C)[C@@H](O)[C@@H](OC)C(=O)[C@H](C)C[C@H](C)/C=C/C=C/C=C/1C [Temsirolimus]	> 0.1	–	–	–	–	1.3	4.1	> 0.1
O=C(CCCCCCC(=O)Nc1ccc([C@H]2O[C@@H](CSc3nc(-c4ccccc4)c(-c4ccccc4)o3)C[C@@H](c3ccc(CO)cc3)O2)cc1)NO [Tubacin]	1.71	> 10	> 10	0	0	3	2.7	–
COc1cc2c(NC3CCN(C(C)C)CC3)nc(C3CCCCC3)nc2cc1OCCCN1CCCC1 [UNC0638]	> 10	> 10	> 10	0	0	0.2	2.4	–
Clc1ccc(Nc2nnc(Cc3ccncc3)c3ccccc23)cc1 [Vatalanib]	> 10	–	–	–	–	0	0	> 10
CC[C@@H]1C(=O)N(C)c2cnc(Nc3ccc(C(=O)N[C@H]4CC[C@H](N5CCN(CC6CC6)CC5)CC4)cc3OC)nc2N1C(C)C [Volasertib]	0.0048	–	–	6	7	18.8	20.7	0.0051
